Assay results published in US7358278B2, “Cellular phosphorylation potential enhancing compositions preparation and use thereof” (priority 1994, dated 2008).
Marks after values point to notes of the source that are not given here.

Tests used:
[1] = tested on: rat cerebral cortical astrocytes; assay type: cell-based; conditions: FIG. 11
Protocol: Astrocytes were treated with increasing amounts of the ER calcium pump inhibitor thapsigargin for 24 hrs in either Krebs buffer or MEM. Cell viability was determined using the MTT assay.
FIG. 10. Exogenous pyruvate provides protection to astrocytes from calcium overload in Krebs Buffer.
For these experiments astrocytes were cultured in either MEM or in Krebs alone or in Krebs with different aminoacid additions grouped as in FIG. 8. Aminoacids were used at 1 mM each. Following 30 min incubation with aminoacids, 15 μM thapsigargin was added to the cultures and the astrocytes cultured for another 24 hours in the presence or absence of 10 mM cinnamate, at which point cell viability was determined using the MTT assay. Cell viability is expressed as percent of that seen with MEM without thapsigargin addition. At the 15 μM thapsigargin dose, about 80% viability is seen in MEM and this is reduced to 20% by the addition of pyruvate. […]
The combination of pyruvate, nicotinamide, and creatine has synergistic benefits for cellular energy metabolism and is also cytoprotective. […] Since we had shown that pyruvate protects neurons from calcium overload induced by thapsigargin toxicity, we first determined whether endogenously produced or exogenously supplied pyruvate could protect astrocytes from calcium overload induced by thapsigargin as shown previously for GT1-7 neurons. […]

rat cortical neurons = assay: Glutamate-induced delayed toxicity, neuroprotection, MTT assay; conditions: FIG. 5b
Protocol: Cell death (glutamate toxicity) was measured using the MTT assay.
The glutamate exposure involved treatment wit 100 micromoolar glutamate for 30 min followed by its removal. […] All data are means +1-SEM from at least three different experiments.
To study glutamate neurotoxicity, we utilized primary cultures of rat cortical neurons and used a glutamate pulse model which produces delayed neuronal death in 24 hrs. All studies were performed in Locke's medium prepared in our laboratory to avoid contribution from the vitamins and additives typically found in many commercial media.
To determine whether the protective effects of pyruvate against glutamate toxicity were due to its effect on cell metabolism, we utilized 4-hydroxycinnamate, a compound that blocks the transporter by which pyruvate enters mitochondria. While pyruvate can exert its antioxidant effects in any compartment, its utilization in energy metabolism requires its entry into mitochondria.

GT1-7 cells = assay: Thapsigargin (calcium overload) toxicity, neuroprotection, MTT dye reduction assay; conditions: 20 micromolar thapsigargin, FIG. 4B
Protocol: GT1-7 cell were subjected to treatments and assessed for nutrient neuroprotection as described in the text. All data are means +/− SEM from at least three different experiments.
To study calcium overload toxicity, we treated cells with thapsigargin, an agent that blocks the endoplastic reticulum calcium pump and markedly elevates cytoplasmic calcium levels. […] All studies were performed in Locke's medium prepared in our laboratory to avoid contribution from the vitamins and additives typically found in many commercial media. After determining the toxin treatment dose needed to produce complete toxicity, we then treated the cells dose-dependently with pyruvate, nicotinamide (nicotinamide) and creatine, either alone or in combination along with the LD95 dose of the toxins. […] For the combination experiments, all three agents are added together and the x-axis indicates the concentration of each agent in the combination.

GT1-7 neurons [2] = assay: Cellular ATP and phosphocreatine levels, chemiluminescent firefly luciferase assay; assay type: cell-based, rat; conditions: 1 mM each, 1 hour incubation; for ATP (% control) / CP (% control): Locke's media; for CP (% control): phosphocreatine
Protocol: (§1) While each of these agents may have additional neuroprotective properties outside of their role in energy metabolism, our major premise is that this combination will provide neuroprotection through enhancement of brain energy levels. To assess this we monitored three different bioenergetic parameters: Whole cell NADH levels, cellular ATP levels and cellular phosphocreatine levels. GT1-7 cells or cross-chopped rat cerebral cortical slices were equilibrated in oxygenated Locke's media for 1 hour. Pyruvate, nicotinamide, or creatine were than added alone or in combination at 1 mM each. Analytes were measured after another hour of incubation. NADH was measured using its specific fluorescence properties in suspended cells and the effect of each nutrient alone and in combination on GT1-7 neuronal NADH levels is shown in table 2a. Pyruvate would be expected to raise mitochondrial NADH levels through its participation in the Krebs cycle and it indeed appears to account for all of this effect in the combination. ATP and phosphocreatine were measured via a chemiluminescent assay utilizing firefly luciferase. In viable cells, phosphocretine levels most adequately reflect cellular energy supply since cells readily convert any excess ATP into phosphocreatine.

GT1-7 neurons [3] = assay: Whole cell NADH levels by NADH fluorescence in suspended cells; assay type: cell-based, rat; conditions: 1 mM each, 1 hour incubation, Locke's media; * significant vs Locke's medium alone P<0.05
Protocol: as §1

[4] = tested on: rat cerebral cortical slices; assay: ATP and phosphocreatine levels in cross-chopped cerebral cortical slices, firefly luciferase assay; assay type: cell-based; conditions: 1 mM each
Protocol: as §1, with “Analytes were measured after another hour of incubation.” left out, “phosphocreatine. […] The response with the combination was larger and was maintained after 6 hours of continued incubation.” for “phosphocreatine.”

Row | Structure (SMILES) | effect of cinnamate on susceptibility of MEM cultured astrocytes to thapsigargin (in words) [1] | effect on glutamate toxicity alone (in words) (rat cortical neurons) | effect on the protection by pyruvate (in words) (rat cortical neurons) | protection against calcium overload (in words) (GT1-7 cells) | CP/ATP Ratio (GT1-7 neurons [2]) | ATP (% control) (GT1-7 neurons [2]) | CP (% control) (GT1-7 neurons [2]) | NADH fluorescence (GT1-7 neurons [3]) | ATP % ctr ([4]; 1 h) [% ctr] | CP % ctr ([4]; 1 h) [% ctr] | CP/ATP Ratio ([4]; 1 h) | ATP % ctr ([4]; 6 h) [% ctr] | CP % ctr ([4]; 6 h) [% ctr] | CP/ATP Ratio ([4]; 6 h)
1 | O=C(O)C=Cc1ccc(O)cc1 [4-hydroxycinnamate] | more susceptible to thapsigargin toxicity | no significant effect on glutamate toxicity alone | prevents the protective effects of pyruvate |  |  |  |  |  |  |  |  |  |  | 
2 | CN(CC(=O)O)C(=N)N [Creatine, creatine] |  |  |  | nearly complete dose dependent protection | 115.2 | 42 + 14.2* % control | 3314.3 + 920* % control | 99.3 ± 2.3 |  |  |  |  |  | 
3 | NC(=O)c1cccnc1 [Nicotinamide, nicotinamide] |  |  |  | nearly complete dose dependent protection | 4.3 | 48.6 ± 23.4 % control | 133.1 + 25 % control | 98.8 ± 2.2 |  |  |  |  |  | 
4 | CC(=O)C(=O)O [Pyruvate, pyruvate] |  |  |  |  | 6 | 103.5 ± 17.7 % control | 551.7 ± 193.7 % control | 134.64 ± 9.9* | 77.7 | 233.6 | 3.1 | 143.6 | 150.6 | 1
